Experimental findings from patent US9796711B2, “Substituted pyrazolo[3,4-b]pyridin-6-carboxylic acids and method of use” (AbbVie S.àr.l., priority 2015, dated 2017) are described below.

Molecules are shown by their SMILES.

The target in this test is T1, ΔF508-CFTR (Homo sapiens, UniProt P13569, DEL508-508).
T1 construct: host or cells: CFBE41o-, doxycycline-inducible
Description: CFTR cell surface levels using HRP-tagged ΔF508-CFTR expressing CFBE cells, in the presence of a co-corrector. It counts as cell-based. Particulars: HRP-tagged ΔF508-CFTR expressing CFBE cells, in the presence of 3 μM co-corrector; for EC50: read-out: EC50. An excerpt:
Measuring CFTR Cell Surface Levels Using HRP-Tagged AF508-CFTR Expressing CFBE Cells
The HRP-tagged AF508-CFTR cell assay measures the expression of CFTR-ΔF508 at the plasma membrane. CFTR-ΔF508 has a folding defect leading to absence of protein at the plasma membrane. This assay is used to evaluate the capacity of compounds to increase the expression of CFTR-ΔF508 at the plasma membrane. The CFTR-ΔF508 is tagged with HRP (horse radish peroxidase enzyme) within the ECL4 (Extracellular loop 4) of CFTR (Phuan, P.-W. et al. Synergy-based small-molecule screen using a human lung epithelial cell line yields AF508-CFTR correctors that augment VX-809 maximal efficacy. Mol. Pharmacol. 86, 42-51 (2014)). When HRP-tagged AF508-CFTR is present at the plasma membrane, the HRP enzyme activity can be measured. The amount of CFTR-ΔF508 that can be rescued to the plasma membrane is correlated with the amount of functional enzyme that can be measured.
There are several ways to measure the capacity of compounds to rescue CFTR-ΔF508 to the plasma membrane; either compounds are evaluated on their own and the impact on plasma membrane levels is measured or compounds are evaluated in combination with a co-corrector, i.e. a compound that rescues CFTR-ΔF508 to the plasma membrane but rescue can be enhanced by addition of compounds due to a complementary mode of action.
Activity of Compounds in Combination with Co-Corrector:
For this purpose doxycycline-inducible AF508-CFTR-HRP expressing CFBE4lo-cells (obtained from Gergely Lukacs, McGill University) were maintained in MEM (Minimum Essential Medium, Gibco; 31095) supplemented with 10% fetal bovine serum (Hyclone; SV30160.03) under puromycin (3 μg/mL) and G418 selection (0.2 mg/mL). For compound testing, cells were seeded at 4000 cells/well in white 384-well plates (Greiner; 781080) in 50 μL of medium containing 0.5 μg/mL doxycycline and incubated for 68 hours at 37° C., 5% CO2. On day four, 10 μL of test compounds diluted in PBS (phosphate buffered saline) were added to the plates at a final DMSO concentration of 0.1%. In order to measure compound synergy with a co-corrector, 3 μM co-corrector (3-[(2R,4R)-4-({[1-(2,2-difluoro-1,3-benzodioxol-5-yl)cyclopropyl]carbonyl}amino)-7-methoxy-3,4-dihydro-2H-chromen-2-yl]benzoic acid) was added along with test compounds. All compound plates contained negative controls (DMSO) and positive controls (3 μM co-corrector). Cell plates were incubated at 33° C., 5% CO2 for 20 hours. On day five, the cells were washed five times with phosphate-buffered saline, and HRP activity was assayed by the addition of 50 μL/well of HRP substrate (SuperSignal™ West Pico Chemiluminescent Substrate, Thermo Scientific; 34080). After incubation for 15 minutes in the dark, the chemiluminescence was measured using a plate reader (EnVision®, Perkin Elmer). Raw data were normalized to percentage activity values using the equation: 100×(Sample−Negative control)/(Positive control−Negative Control).

The term EC50 denotes the concentration needed to bring the measured effect to its halfway point.

T1 sequence (P13569 with tags, fused parts or gaps DEL508-508): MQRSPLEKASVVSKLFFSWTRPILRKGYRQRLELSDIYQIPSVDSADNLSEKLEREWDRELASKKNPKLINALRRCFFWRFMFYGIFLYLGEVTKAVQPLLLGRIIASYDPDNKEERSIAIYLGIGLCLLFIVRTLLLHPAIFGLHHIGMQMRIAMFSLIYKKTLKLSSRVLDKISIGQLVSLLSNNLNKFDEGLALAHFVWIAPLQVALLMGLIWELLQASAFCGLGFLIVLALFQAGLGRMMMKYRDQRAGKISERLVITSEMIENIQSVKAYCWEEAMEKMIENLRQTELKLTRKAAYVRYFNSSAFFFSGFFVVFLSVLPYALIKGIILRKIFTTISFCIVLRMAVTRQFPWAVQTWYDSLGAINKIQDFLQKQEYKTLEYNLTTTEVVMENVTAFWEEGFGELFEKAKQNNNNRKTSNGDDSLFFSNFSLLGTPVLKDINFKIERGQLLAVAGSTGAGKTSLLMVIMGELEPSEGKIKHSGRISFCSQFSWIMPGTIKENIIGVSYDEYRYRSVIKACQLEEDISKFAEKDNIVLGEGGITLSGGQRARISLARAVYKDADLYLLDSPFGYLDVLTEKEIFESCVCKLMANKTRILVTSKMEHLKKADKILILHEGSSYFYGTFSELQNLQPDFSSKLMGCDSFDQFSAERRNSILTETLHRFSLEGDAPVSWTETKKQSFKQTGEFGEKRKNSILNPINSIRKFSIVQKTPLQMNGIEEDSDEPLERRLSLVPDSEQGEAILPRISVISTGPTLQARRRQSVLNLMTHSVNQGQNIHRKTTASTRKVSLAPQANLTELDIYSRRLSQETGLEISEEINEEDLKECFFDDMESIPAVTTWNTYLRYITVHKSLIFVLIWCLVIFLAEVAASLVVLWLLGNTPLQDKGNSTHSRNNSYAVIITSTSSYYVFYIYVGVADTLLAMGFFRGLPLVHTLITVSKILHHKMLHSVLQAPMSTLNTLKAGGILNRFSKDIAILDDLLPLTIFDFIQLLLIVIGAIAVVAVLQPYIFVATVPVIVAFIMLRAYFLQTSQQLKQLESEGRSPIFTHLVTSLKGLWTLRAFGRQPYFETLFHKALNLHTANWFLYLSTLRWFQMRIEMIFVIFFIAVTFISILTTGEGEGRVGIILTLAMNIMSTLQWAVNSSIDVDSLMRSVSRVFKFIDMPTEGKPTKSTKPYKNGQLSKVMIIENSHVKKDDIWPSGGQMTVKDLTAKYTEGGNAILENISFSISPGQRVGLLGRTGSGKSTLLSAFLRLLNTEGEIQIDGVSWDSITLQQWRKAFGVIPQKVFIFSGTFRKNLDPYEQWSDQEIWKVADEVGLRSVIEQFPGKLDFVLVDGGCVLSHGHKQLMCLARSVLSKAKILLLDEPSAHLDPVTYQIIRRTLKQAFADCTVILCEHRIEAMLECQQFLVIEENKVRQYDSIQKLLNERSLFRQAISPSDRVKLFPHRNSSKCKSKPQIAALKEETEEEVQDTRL

Regarding `CC(C)c1nn(-c2ccc(F)cc2)c2nc(C(=O)O)cc(N3CCC(OCCN4CCCCC4)CC3)c12` [compound 762, 1-(4-fluorophenyl)-4-{4-[2-(piperidin-1-yl)ethoxy]piperidin-1-yl}-3-(propan-2-yl)-1H-pyrazolo[3,4-b]pyridine-6-carboxylic acid], the “% Activation” value is on record as 442.6% and the EC50 came out at 462 nM.
For `O=C(O)c1cc(N2CCN(CCOCCO)CC2)c2c(C3CCC3)nn(-c3ccccc3)c2n1` [compound 714, 3-cyclobutyl-4-{4-[2-(2-hydroxyethoxy)ethyl]piperazin-1-yl}-1-phenyl-1H-pyrazolo[3,4-b]pyridine-6-carboxylic acid], in that order: 212.5% and 1410 nM.
On the same counts, the results for `CC(C)c1nn(-c2ccc(F)cc2)c2nc(C(=O)O)cc(N3CCN(CCCN(C)C)CC3)c12` [compound 760, 4-{4-[3-(dimethylamino)propyl]piperazin-1-yl}-1-(4-fluorophenyl)-3-(propan-2-yl)-1H-pyrazolo[3,4-b]pyridine-6-carboxylic acid] are 131.6% and 5000 nM.
For `CC(C)CN1CCC(CN(C)c2cc(C(=O)O)nc3c2c(C2CCC2)nn3-c2ccccc2)CC1` [compound 564, 3-cyclobutyl-4-(methyl{[1-(2-methylpropyl)piperidin-4-yl]methyl}amino)-1-phenyl-1H-pyrazolo[3,4-b]pyridine-6-carboxylic acid], in that order: 369.1% and 2450 nM.
Turning to `CCCCN1CCCN(c2cc(C(=O)O)nc3c2c(C2CCC2)nn3-c2ccccc2)CC1` [compound 710, 4-(4-butyl-1,4-diazepan-1-yl)-3-cyclobutyl-1-phenyl-1H-pyrazolo[3,4-b]pyridine-6-carboxylic acid], the “% Activation” value is listed as 282.6% and the EC50 turned out to be 1350 nM.
For `O=C(O)c1cc(O[C@H]2C[C@@H](N3CCC3)C2)c2c(C3CCC3)nn(-c3ccccc3)c2n1` [compound 598, 4-{[cis-3-(azetidin-1-yl)cyclobutyl]oxy}-3-cyclobutyl-1-phenyl-1H-pyrazolo[3,4-b]pyridine-6-carboxylic acid], in that order: 274.4% and 3330 nM.
For `CC(C)c1nn(-c2ccc(F)cc2)c2nc(C(=O)O)cc(OCC3(C)COC3)c12` [compound 608, 1-(4-fluorophenyl)-4-[(3-methyloxetan-3-yl)methoxy]-3-(propan-2-yl)-1H-pyrazolo[3,4-b]pyridine-6-carboxylic acid], in that order: 338.1% and 683 nM.
On the same counts, the results for `CC(C)c1nn(-c2ccc(F)cc2)c2nc(C(=O)O)cc(N3CC[C@@H](O)[C@H](F)C3)c12` [compound 668, 4-[(3R,4R)-3-fluoro-4-hydroxypiperidin-1-yl]-1-(4-fluorophenyl)-3-(propan-2-yl)-1H-pyrazolo[3,4-b]pyridine-6-carboxylic acid] are 341.65% and 2360 nM.
For the compound `O=C(O)c1cc(-c2ccc(CN3CCOCC3)cc2)c2c(OC3CCC3)nn(C3CCCCC3)c2n1` [compound 808, 3-(cyclobutyloxy)-1-cyclohexyl-4-{4-[(morpholin-4-yl)methyl]phenyl}-1H-pyrazolo[3,4-b]pyridine-6-carboxylic acid], the “% Activation” value was 297% and the EC50 came out at 264 nM.
Regarding `COc1cc(-n2nc(C3CCC3)c3c(N4CCC(N5CCOCC5)CC4)cc(C(=O)O)nc32)ccn1` [compound 816, 3-cyclobutyl-1-(2-methoxypyridin-4-yl)-4-[4-(morpholin-4-yl)piperidin-1-yl]-1H-pyrazolo[3,4-b]pyridine-6-carboxylic acid], the “% Activation” value amounted to 359.9% and the EC50 turned out to be 67.6 nM.
On the same counts, the results for `CC(C)c1nn(-c2ccc(F)cc2)c2nc(C(=O)O)cc(N3CC(N4CCC(N5CCOCC5)CC4)C3)c12` [compound 759, 1-(4-fluorophenyl)-4-{3-[4-(morpholin-4-yl)piperidin-1-yl]azetidin-1-yl}-3-(propan-2-yl)-1H-pyrazolo[3,4-b]pyridine-6-carboxylic acid] are 207% and 1670 nM.
Turning to `N#CCC1(O)CCN(c2cc(C(=O)O)nc3c2c(C2CCC2)nn3-c2ccccc2)CC1` [compound 665, 4-[4-(cyanomethyl)-4-hydroxypiperidin-1-yl]-3-cyclobutyl-1-phenyl-1H-pyrazolo[3,4-b]pyridine-6-carboxylic acid], the “% Activation” value is 330.43% and the EC50 is 1860 nM.
For `C[C@@H]1CN(c2cc(C(=O)O)nc3c2c(C2CCC2)nn3C2CCCCC2)CCN1Cc1ccccc1` [compound 882, 4-[(3R)-4-benzyl-3-methylpiperazin-1-yl]-3-cyclobutyl-1-cyclohexyl-1H-pyrazolo[3,4-b]pyridine-6-carboxylic acid], in that order: 363.85% and 372 nM.
On the same counts, the results for `CCN(CC)CCCC1CCN(c2cc(C(=O)O)nc3c2c(C(C)C)nn3-c2ccc(F)cc2)CC1` [compound 747, 4-{4-[3-(diethylamino)propyl]piperidin-1-yl}-1-(4-fluorophenyl)-3-(propan-2-yl)-1H-pyrazolo[3,4-b]pyridine-6-carboxylic acid] are 475.3% and 1670 nM.
For `O=C(O)c1cc(N2CCC(N3CCCC(C(=O)N4CCOCC4)C3)CC2)c2c(C3CCC3)nn(-c3ccccc3)c2n1` (stereo not shown) [compound 711, 3-cyclobutyl-4-[3-(morpholine-4-carbonyl)[1,4′-bipiperidin]-1′-yl]-1-phenyl-1H-pyrazolo[3,4-b]pyridine-6-carboxylic acid], the “% Activation” value is listed as 248.8% and the EC50 is 1110 nM.
For `CCOCCN1CCN(C2CCN(c3cc(C(=O)O)nc4c3c(C3CCC3)nn4-c3ccccc3)CC2)CC1` [compound 729, 3-cyclobutyl-4-{4-[4-(2-ethoxyethyl)piperazin-1-yl]piperidin-1-yl}-1-phenyl-1H-pyrazolo[3,4-b]pyridine-6-carboxylic acid], in that order: 530.4% and 1670 nM.
On the same counts, the results for `CCCN1CCN(c2cc(C(=O)O)nc3c2c(C2CCC2)nn3-c2ccccc2)CC1` [compound 707, 3-cyclobutyl-1-phenyl-4-(4-propylpiperazin-1-yl)-1H-pyrazolo[3,4-b]pyridine-6-carboxylic acid] are 326.3% and 341 nM.
Take `O=C(O)c1cc(N2CCS(=O)(=O)CC2)c2c(C3CCC3)nn(-c3ccccc3)c2n1` [compound 673, 3-cyclobutyl-4-(1,1-dioxo-1λ^6,4-thiazinan-4-yl)-1-phenyl-1H-pyrazolo[3,4-b]pyridine-6-carboxylic acid]: the “% Activation” value turned out to be 163.25% and the EC50 turned out to be 3330 nM.
Consider `O=C(O)c1cc(N2CCN(C(=O)CN3CCOCC3)CC2)c2c(C3CCC3)nn(-c3ccccc3)c2n1` [compound 570, 3-cyclobutyl-4-{4-[(morpholin-4-yl)acetyl]piperazin-1-yl}-1-phenyl-1H-pyrazolo[3,4-b]pyridine-6-carboxylic acid], for which the “% Activation” value is recorded as 254% and the EC50 came to 3330 nM.
For the compound `Cc1nn(-c2ccccc2)c2nc(C(=O)O)cc(-c3ccc(N4CCOCC4)cc3)c12` [compound 1, 3-methyl-4-[4-(morpholin-4-yl)phenyl]-1-phenyl-1H-pyrazolo[3,4-b]pyridine-6-carboxylic acid], the “% Activation” value is on record as 354.48% and the EC50 came to 1040 nM.
